From ChEMBL document CHEMBL5143523, “Construction and activity evaluation of novel benzodioxane derivatives as dual-target antifungal inhibitors” (Eur J Med Chem, 2022) come the findings set out here.

The pIC50 is the IC50 on a negative log10 scale, so that one unit is a factor of ten.

pIC50: −log10 of the molar value. Values after ≈ are worked out from the molar mass of the structure shown.

Assay [1] relates to Candida albicans. In words: Antifungal activity against fluconazole resistant Candida albicans strain 17# assessed as fungal growth inhibition measured after 72 hrs by CLSI protocol based liquid medium dilution method. Type of assay: functional.
The subject of assay [2] is Candida albicans. In words: Induction of apoptosis in Candida albicans ATCC SC5314 cells assessed as early apoptotic cells at 8 ug/ml incubated for 72 hrs by Annexin V-FITC/PI staining based flow cytometry method (reference value: 0.56%). The note with it: dose 8 µg/ml. Type of assay: functional.
For the next assay, the system named is Nakaseomyces glabratus. Put plainly: Antifungal activity against Candida glabrata ATCC 0001 assessed as fungal growth inhibition measured after 72 hrs by CLSI protocol based liquid medium dilution method. Type of assay: functional.
Assay [3] has as its system Candida albicans. In words: Antifungal activity against Candida albicans ATCC SC5314 assessed as change in unknown sterol level at 4 ug/ml incubated for 48 hrs by LC-MS analysis (reference value: 4.3%). Type of assay: functional. To be noted: dose 4 µg/ml.
The next assay deals with Pichia kudriavzevii. In words: Antifungal activity against Candida krusei ATCC 6258 assessed as fungal growth inhibition measured after 72 hrs by CLSI protocol based liquid medium dilution method. Type of assay: functional.
The test system of assay [4] is Candida albicans. Put plainly: Induction of apoptosis in Candida albicans ATCC SC5314 cells assessed as late apoptotic cells at 8 ug/ml incubated for 72 hrs by Annexin V-FITC/PI staining based flow cytometry method (reference value: 0.12%). Type of assay: functional. To be noted: dose 8 µg/ml. On the technique in general: A flow cytometer gives signals particle by particle.

Assay [5] concerns Candida albicans. In words: Antifungal activity against Candida albicans ATCC SC5314 assessed as change in lanosterol level at 4 ug/ml incubated for 48 hrs by LC-MS analysis (reference value: 3.7%). Type of assay: functional. To be noted: dose 4 µg/ml.
The test system of assay [6] is Candida albicans. Put plainly: Antifungal activity against Candida albicans ATCC SC5314 assessed as decrease in ergosterol content at 4 ug/ml incubated for 48 hrs by LC-MS analysis (reference value: 90.6%). Type of assay: functional. More on the design: scale not given: the % may be the effect or the level left. To be noted: dose 4 µg/ml.
The target of assay [7] is Lanosterol 14-alpha demethylase (Candida albicans (strain SC5314 / ATCC MYA-2876) (Yeast), UniProt P10613). Put plainly: Inhibition of CYP51 in Candida albicans ATCC SC5314 incubated for 30 mins using eburicol as substrate in presence of NADPH by HPLC analysis.
Lanosterol 14-alpha demethylase, sequence (P10613 whole entry): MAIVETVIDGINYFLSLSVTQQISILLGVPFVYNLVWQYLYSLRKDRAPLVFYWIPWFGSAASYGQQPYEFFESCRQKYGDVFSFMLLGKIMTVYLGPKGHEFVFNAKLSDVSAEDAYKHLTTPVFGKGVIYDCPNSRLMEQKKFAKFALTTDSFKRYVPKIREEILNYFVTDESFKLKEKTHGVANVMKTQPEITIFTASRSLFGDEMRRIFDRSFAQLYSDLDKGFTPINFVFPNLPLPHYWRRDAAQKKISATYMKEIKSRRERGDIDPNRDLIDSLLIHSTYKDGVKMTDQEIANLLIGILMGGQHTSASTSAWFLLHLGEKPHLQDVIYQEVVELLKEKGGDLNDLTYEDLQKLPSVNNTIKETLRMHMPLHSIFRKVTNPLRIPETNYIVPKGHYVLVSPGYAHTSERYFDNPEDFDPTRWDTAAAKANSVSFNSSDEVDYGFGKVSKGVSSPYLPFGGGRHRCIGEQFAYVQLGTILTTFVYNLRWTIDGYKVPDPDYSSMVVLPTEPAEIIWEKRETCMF
In assay [8] the test system is Candida albicans. Put plainly: Antifungal activity against fluconazole resistant Candida albicans strain 103 assessed as fungal growth inhibition measured after 72 hrs by CLSI protocol based liquid medium dilution method. Type of assay: functional.
Assay [9] deals with Candida albicans. In words: Antifungal activity against Candida albicans ATCC 10231 assessed as fungal growth inhibition measured after 72 hrs by CLSI protocol based liquid medium dilution method. Type of assay: functional.
Assay [10] has as its system Candida albicans. In words: Antifungal activity against fluconazole resistant Candida albicans strain CaR assessed as fungal growth inhibition measured after 72 hrs by CLSI protocol based liquid medium dilution method. Type of assay: functional.
A further assay deals with Candida tropicalis. In words: Antifungal activity against Candida tropicalis ATCC 1369 assessed as fungal growth inhibition measured after 72 hrs by CLSI protocol based liquid medium dilution method. Type of assay: functional.
The test system of assay [11] is Candida albicans. Put plainly: Antifungal activity against Candida albicans ATCC SC5314 assessed as change in squalene level at 4 ug/ml incubated for 48 hrs by LC-MS analysis. Type of assay: functional. To be noted: dose 4 µg/ml.
Assay [12] deals with Candida albicans. In words: Induction of apoptosis in Candida albicans ATCC SC5314 cells assessed as live cells at 8 ug/ml incubated for 72 hrs by Annexin V-FITC/PI staining based flow cytometry method (reference value: 95.56%). Type of assay: functional. The note with it: dose 8 µg/ml.
For assay [13], the system named is Candida albicans. Put plainly: Antifungal activity against Candida albicans ATCC SC5314 assessed as change in eburicol level at 4 ug/ml incubated for 48 hrs by LC-MS analysis (reference value: 1.4%). The note with it: dose 4 µg/ml. Type of assay: functional.
A further assay deals with Aspergillus fumigatus. In words: Antifungal activity against Aspergillus fumigatus KM8001 assessed as fungal growth inhibition measured after 72 hrs by CLSI protocol based liquid medium dilution method. Type of assay: functional.
In assay [14] the test system is Candida albicans. Put plainly: Antifungal activity against fluconazole resistant Candida albicans strain 901 assessed as fungal growth inhibition measured after 72 hrs by CLSI protocol based liquid medium dilution method. Type of assay: functional.
In assay [15] the test system is Candida albicans. In words: Antifungal activity against fluconazole resistant Candida albicans strain 904 assessed as fungal growth inhibition measured after 72 hrs by CLSI protocol based liquid medium dilution method. Type of assay: functional.
Assay [16] concerns Candida albicans. Put plainly: Induction of apoptosis in Candida albicans ATCC SC5314 cells assessed as necrotic cells at 8 ug/ml incubated for 72 hrs by Annexin V-FITC/PI staining based flow cytometry method (reference value: 3.76%). To be noted: dose 8 µg/ml. Type of assay: functional.
Assay [17] concerns Candida albicans. Put plainly: microbe, parasite or virus in culture. To be noted: Candida albicans, 904, 72 h.
Description: Antifungal activity against fluconazole resistant Candida albicans strain 904 assessed as fungal growth inhibition measured after 72 hrs in presence of miconazole by CLSI protocol based liquid medium dilution method
A further assay deals with T1, Squalene epoxidase ERG1 (Candida albicans, UniProt Q92206).
T1 sequence (Q92206 whole entry): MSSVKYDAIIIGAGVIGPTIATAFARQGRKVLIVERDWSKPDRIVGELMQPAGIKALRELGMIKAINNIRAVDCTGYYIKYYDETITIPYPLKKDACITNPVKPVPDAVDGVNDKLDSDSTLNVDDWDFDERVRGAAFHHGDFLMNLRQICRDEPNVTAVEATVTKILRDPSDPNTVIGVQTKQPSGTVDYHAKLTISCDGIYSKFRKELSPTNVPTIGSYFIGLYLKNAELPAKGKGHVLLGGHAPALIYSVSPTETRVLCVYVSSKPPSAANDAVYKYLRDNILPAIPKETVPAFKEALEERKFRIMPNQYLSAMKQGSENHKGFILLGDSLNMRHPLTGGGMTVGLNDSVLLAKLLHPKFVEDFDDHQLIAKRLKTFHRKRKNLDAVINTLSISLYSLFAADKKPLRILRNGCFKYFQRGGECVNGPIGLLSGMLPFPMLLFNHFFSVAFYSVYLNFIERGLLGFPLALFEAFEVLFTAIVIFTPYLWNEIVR
Put plainly: Inhibition of SE in Candida albicans ATCC SC5314 incubated for 30 mins using squalene as substrate in presence of NADPH by spectrophotometer analysis.

Assay [18] relates to Candida albicans. Put plainly: Antifungal activity against fluconazole resistant Candida albicans strain 17# assessed as fungal growth inhibition measured after 72 hrs in presence of miconazole by CLSI protocol based liquid medium dilution method.
Assay [19] deals with Candida albicans. Put plainly: microbe, parasite or virus in culture. The note with it: Candida albicans, 103, 72 h.
Description: Antifungal activity against fluconazole resistant Candida albicans strain 103 assessed as fungal growth inhibition measured after 72 hrs in presence of miconazole by CLSI protocol based liquid medium dilution method
Assay [20] relates to Candida albicans. In words: microbe, parasite or virus in culture. To be noted: Candida albicans, 901, 72 h.
Description: Antifungal activity against fluconazole resistant Candida albicans strain 901 assessed as fungal growth inhibition measured after 72 hrs in presence of miconazole by CLSI protocol based liquid medium dilution method
The test system of assay [21] is Candida albicans. Put plainly: Antifungal activity against fluconazole resistant Candida albicans strain CaR assessed as fungal growth inhibition measured after 72 hrs in presence of miconazole by CLSI protocol based liquid medium dilution method.

With `OC(Cn1cncn1)(Cn1cncn1)c1ccc(F)cc1F` [FLUCONAZOLE], the MIC50 in the assay on Candida albicans [1] is over 8 µg/mL; in the assay on Nakaseomyces glabratus, 0.25 µg/mL (≈ 0.816 µM); in the assay with Pichia kudriavzevii, 0.5 µg/mL (≈ 1.63 µM); in the assay with Candida albicans [8] it was over 8 µg/mL; with Candida albicans [9], 0.25 µg/mL (≈ 0.816 µM); in the assay on Candida albicans [10], over 8 µg/mL. Also, the MIC50 in the assay with Candida tropicalis was 0.5 µg/mL (≈ 1.63 µM); in the assay on Aspergillus fumigatus it was over 8 µg/mL; in the assay on Candida albicans [14], over 8 µg/mL; with Candida albicans [15], over 8 µg/mL. Also, the Activity in the assay on Candida albicans [2] was 1.83%; in the assay on Candida albicans [3] it was 5.6%; in the assay on Candida albicans [4] it was 3.02%; in the assay on Candida albicans [5] it was 21.6%; in the assay with Candida albicans [6], 29.5%; with Candida albicans [11] it was 2.7%. Further, the Activity in the assay with Candida albicans [12] was determined as 76.56%; in the assay with Candida albicans [13] it was 40.6%; in the assay with Candida albicans [16] it was 18.59%. Besides, the pIC50 in assay [7] is 6.83.

For `CN(C/C=C/c1ccccc1)Cc1cccc2ccccc12` [NAFTIFINE], the MIC50 in the assay on Candida albicans [1] was determined as 2 µg/mL (≈ 6.96 µM); against Candida albicans [17], 1 µg/mL (≈ 3.48 µM); in the assay on Nakaseomyces glabratus, 1 µg/mL (≈ 3.48 µM); in the assay with Pichia kudriavzevii, 0.5 µg/mL (≈ 1.74 µM); with Candida albicans [18], 1 µg/mL; in the assay with Candida albicans [8] it was 4 µg/mL (≈ 13.9 µM). In addition, the MIC50 in the assay on Candida albicans [9] was 0.5 µg/mL (≈ 1.74 µM); in the assay on Candida albicans [10], 4 µg/mL (≈ 13.9 µM); in the assay with Candida tropicalis it was 0.5 µg/mL (≈ 1.74 µM); against Candida albicans [19], 2 µg/mL (≈ 6.96 µM); with Aspergillus fumigatus it was 4 µg/mL (≈ 13.9 µM); in the assay with Candida albicans [20], 2 µg/mL (≈ 6.96 µM). The MIC50 in the assay with Candida albicans [21] worked out at 1 µg/mL; in the assay on Candida albicans [14], 2 µg/mL (≈ 6.96 µM); with Candida albicans [15], 4 µg/mL (≈ 13.9 µM). Also, the pIC50 on Squalene epoxidase ERG1 was 6.50. In addition, the Activity is 0.56% with Candida albicans [2]; 5.8% with Candida albicans [3]; 1.99% in the assay on Candida albicans [4]; 2.6% in the assay on Candida albicans [5]; 35.1% in the assay with Candida albicans [6]; 52.8% in the assay on Candida albicans [11]. Besides, the Activity in the assay with Candida albicans [12] stood at 61.6%; with Candida albicans [13] it was 3.7%; in the assay on Candida albicans [16], 35.85%.
